According to ChEMBL document CHEMBL3991601, “The target landscape of clinical kinase drugs” (Science, 2017):
Activity calls are given as the source filed them. For most assays here, no stated cut-off is given here; in the data, actives have a measured Kd and inactives only a lower limit.

Columns and labels:
[1] = target: T1, Ribosyldihydronicotinamide dehydrogenase [quinone] (Homo sapiens, UniProt P16083)
T1 sequence (P16083 whole entry): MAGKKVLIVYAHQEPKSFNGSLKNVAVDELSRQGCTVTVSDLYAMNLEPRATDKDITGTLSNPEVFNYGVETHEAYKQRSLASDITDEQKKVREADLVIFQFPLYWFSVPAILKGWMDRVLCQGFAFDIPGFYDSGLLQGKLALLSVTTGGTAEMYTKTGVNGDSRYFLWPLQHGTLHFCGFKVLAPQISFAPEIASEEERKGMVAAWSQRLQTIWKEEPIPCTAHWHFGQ

[2] = target: T2, Phosphatidylinositol 5-phosphate 4-kinase type-2 gamma (Homo sapiens, UniProt Q8TBX8)
T2 sequence (Q8TBX8 whole entry): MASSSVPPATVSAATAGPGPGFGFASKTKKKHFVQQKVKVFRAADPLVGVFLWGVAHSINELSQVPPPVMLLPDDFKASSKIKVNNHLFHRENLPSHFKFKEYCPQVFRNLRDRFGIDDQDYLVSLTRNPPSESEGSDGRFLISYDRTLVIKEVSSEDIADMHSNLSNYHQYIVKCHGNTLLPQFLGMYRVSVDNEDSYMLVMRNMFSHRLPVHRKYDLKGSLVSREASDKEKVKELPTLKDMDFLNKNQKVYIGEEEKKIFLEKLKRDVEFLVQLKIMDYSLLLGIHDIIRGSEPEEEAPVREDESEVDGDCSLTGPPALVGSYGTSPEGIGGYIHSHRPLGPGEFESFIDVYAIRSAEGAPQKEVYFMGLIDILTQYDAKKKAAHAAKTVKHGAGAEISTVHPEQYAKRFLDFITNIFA

Pyridoxal kinase = target: T3, Pyridoxal kinase (Homo sapiens, UniProt O00764)
T3 sequence (O00764 whole entry): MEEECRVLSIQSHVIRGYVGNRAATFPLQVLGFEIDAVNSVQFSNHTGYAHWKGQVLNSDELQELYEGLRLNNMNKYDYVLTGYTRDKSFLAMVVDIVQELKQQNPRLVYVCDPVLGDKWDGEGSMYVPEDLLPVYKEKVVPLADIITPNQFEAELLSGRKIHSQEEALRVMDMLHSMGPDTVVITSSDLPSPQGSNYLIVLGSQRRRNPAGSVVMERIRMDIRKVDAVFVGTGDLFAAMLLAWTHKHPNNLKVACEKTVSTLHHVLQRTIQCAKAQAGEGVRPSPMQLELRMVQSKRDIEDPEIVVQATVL

[3] = target: Protein-tyrosine kinase 6 (Homo sapiens, UniProt Q13882)
Chain of Protein-tyrosine kinase 6 (Q13882 whole entry): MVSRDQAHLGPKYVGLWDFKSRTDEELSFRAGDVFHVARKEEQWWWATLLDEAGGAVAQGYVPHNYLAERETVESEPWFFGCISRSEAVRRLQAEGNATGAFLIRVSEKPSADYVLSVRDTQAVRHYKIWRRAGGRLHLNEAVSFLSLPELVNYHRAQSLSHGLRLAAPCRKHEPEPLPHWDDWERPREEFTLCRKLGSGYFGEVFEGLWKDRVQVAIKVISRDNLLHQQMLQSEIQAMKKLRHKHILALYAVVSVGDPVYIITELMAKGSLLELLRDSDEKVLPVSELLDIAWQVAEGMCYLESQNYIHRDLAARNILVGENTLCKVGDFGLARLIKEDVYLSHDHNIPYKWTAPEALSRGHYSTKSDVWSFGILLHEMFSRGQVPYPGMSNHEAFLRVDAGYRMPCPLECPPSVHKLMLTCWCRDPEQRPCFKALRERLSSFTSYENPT

Myosin-14 = Myosin-14 (Homo sapiens, UniProt Q7Z406)
Chain of Myosin-14 (Q7Z406 whole entry): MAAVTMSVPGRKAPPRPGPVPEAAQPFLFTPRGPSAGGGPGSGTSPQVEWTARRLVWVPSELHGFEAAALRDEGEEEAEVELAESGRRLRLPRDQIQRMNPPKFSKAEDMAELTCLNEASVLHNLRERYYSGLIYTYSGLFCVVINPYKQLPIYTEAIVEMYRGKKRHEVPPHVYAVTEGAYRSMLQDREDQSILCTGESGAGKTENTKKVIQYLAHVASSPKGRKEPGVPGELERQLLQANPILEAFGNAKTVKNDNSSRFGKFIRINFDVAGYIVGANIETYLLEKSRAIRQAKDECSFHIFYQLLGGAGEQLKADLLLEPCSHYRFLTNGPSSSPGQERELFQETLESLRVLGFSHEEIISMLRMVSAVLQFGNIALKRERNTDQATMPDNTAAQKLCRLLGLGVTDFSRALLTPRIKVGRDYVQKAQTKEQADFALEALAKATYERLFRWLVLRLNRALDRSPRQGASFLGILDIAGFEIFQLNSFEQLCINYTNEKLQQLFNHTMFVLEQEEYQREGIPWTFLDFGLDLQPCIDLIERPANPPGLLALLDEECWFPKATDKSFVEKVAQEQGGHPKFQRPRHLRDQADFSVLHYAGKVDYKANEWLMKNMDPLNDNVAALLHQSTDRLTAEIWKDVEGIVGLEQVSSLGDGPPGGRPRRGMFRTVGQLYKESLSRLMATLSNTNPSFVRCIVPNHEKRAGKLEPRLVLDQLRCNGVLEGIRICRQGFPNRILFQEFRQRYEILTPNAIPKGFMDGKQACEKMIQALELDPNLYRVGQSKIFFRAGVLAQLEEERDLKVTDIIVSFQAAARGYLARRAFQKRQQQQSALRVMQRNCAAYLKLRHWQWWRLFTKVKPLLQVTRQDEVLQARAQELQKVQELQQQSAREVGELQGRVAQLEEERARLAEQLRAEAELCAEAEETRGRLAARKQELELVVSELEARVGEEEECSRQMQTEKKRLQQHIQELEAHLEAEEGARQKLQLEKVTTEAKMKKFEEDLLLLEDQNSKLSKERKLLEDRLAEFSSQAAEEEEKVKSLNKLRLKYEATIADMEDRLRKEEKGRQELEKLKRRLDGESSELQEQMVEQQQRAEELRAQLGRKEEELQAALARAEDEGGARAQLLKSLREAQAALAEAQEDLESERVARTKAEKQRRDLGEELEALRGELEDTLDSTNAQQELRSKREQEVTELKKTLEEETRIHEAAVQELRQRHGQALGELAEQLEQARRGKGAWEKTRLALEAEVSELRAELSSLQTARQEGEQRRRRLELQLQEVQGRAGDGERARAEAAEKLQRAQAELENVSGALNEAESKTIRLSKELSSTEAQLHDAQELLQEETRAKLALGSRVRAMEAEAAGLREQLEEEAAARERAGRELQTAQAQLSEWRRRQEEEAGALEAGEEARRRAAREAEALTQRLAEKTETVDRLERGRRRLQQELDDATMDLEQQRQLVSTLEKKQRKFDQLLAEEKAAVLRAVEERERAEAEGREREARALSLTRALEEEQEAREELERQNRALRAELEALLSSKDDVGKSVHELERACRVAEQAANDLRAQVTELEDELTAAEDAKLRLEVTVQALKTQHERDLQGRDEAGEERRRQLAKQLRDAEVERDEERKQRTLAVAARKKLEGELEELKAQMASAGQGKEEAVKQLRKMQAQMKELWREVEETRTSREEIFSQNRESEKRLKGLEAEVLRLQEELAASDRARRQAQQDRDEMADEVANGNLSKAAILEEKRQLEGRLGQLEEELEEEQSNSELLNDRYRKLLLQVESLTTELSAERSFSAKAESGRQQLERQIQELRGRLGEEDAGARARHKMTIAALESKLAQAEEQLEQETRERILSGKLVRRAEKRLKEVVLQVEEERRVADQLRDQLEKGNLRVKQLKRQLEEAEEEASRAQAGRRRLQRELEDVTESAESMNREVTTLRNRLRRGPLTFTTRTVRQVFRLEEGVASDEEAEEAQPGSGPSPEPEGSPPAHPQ

[4] = target: T4, Cyclin-G-associated kinase (Homo sapiens, UniProt O14976)
T4 sequence (O14976 whole entry): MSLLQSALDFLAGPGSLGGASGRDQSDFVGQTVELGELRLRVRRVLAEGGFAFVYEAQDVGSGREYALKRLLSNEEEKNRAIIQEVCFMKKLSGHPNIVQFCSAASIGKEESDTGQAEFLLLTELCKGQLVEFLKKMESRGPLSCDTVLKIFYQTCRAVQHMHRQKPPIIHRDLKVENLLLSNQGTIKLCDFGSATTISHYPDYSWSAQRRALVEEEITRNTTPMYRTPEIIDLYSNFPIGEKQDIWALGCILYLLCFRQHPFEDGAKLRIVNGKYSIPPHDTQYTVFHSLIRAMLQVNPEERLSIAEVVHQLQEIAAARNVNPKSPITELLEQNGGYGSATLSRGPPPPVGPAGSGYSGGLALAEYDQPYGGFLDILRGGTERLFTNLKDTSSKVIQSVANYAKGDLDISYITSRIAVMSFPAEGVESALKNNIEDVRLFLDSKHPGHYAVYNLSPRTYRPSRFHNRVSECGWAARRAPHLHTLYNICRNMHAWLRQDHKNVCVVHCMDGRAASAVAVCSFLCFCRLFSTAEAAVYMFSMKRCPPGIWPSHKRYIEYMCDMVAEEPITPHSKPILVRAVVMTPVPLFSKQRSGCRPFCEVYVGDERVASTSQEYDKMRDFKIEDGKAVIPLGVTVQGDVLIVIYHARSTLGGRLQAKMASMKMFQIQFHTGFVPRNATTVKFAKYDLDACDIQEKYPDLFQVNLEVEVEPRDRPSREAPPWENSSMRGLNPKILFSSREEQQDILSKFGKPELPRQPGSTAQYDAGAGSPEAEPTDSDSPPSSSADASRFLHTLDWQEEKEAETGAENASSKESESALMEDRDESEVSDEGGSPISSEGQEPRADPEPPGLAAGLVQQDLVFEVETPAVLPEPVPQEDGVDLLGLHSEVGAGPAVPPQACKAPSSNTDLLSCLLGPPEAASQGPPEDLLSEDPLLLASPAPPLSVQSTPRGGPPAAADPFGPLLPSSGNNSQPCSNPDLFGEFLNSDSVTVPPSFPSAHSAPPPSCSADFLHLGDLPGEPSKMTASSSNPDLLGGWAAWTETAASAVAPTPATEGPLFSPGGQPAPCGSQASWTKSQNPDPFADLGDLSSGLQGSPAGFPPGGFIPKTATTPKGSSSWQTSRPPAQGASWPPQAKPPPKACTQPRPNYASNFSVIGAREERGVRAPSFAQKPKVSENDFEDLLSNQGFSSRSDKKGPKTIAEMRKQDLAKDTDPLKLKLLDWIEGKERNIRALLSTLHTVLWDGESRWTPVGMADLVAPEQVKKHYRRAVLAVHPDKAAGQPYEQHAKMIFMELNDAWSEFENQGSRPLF

[5] = target: Cyclin-dependent kinase 17 (Homo sapiens, UniProt Q00537)
Chain of Cyclin-dependent kinase 17 (Q00537 whole entry): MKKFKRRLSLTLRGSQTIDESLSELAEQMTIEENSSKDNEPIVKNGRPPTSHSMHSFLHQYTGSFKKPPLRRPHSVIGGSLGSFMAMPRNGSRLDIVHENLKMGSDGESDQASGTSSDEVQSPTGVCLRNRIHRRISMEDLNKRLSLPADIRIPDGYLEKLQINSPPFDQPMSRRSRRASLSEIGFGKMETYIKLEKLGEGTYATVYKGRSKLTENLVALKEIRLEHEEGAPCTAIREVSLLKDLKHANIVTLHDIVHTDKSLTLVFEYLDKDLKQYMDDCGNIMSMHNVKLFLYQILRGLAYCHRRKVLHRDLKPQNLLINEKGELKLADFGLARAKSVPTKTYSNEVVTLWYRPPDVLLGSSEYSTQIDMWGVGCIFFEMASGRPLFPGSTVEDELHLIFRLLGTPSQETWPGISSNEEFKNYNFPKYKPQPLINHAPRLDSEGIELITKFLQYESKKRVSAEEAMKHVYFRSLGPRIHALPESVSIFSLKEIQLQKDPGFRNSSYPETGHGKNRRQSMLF

[6] = target: T5, MAP kinase-activated protein kinase 5 (Homo sapiens, UniProt Q8IW41)
T5 sequence (Q8IW41 whole entry): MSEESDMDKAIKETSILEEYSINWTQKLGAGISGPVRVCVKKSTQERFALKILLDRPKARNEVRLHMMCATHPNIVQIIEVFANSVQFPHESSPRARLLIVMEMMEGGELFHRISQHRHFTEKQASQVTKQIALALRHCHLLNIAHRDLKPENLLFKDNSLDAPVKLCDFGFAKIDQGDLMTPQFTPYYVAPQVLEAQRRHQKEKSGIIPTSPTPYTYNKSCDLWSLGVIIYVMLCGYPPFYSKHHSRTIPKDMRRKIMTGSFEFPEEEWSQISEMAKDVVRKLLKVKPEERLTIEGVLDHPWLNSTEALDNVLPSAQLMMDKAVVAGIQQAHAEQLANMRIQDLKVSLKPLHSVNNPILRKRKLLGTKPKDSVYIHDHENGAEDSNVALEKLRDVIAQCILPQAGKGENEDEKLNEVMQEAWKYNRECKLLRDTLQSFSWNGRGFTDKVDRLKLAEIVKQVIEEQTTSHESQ

Measured: Kd

FC(F)(F)c1ccc(/C=C/c2nc(COc3ccc(CCCCn4ccnn4)cc3)co2)cc1 [MUBRITINIB]
inactive: [1] > 30 µM | [2] > 30 µM | Pyridoxal kinase > 30 µM | [3] > 30 µM | Myosin-14 > 30 µM | [4] > 30 µM | [5] > 30 µM | [6] > 30 µM
